Experiments:
[1] = test system: cisplatin-induced hearing loss (CIHL); conditions: cited from earlier work; for patients in whom CIHL was seen: 61 patients treated with STS (intravenous), 64 with cisplatin alone, p=0.00022; for overall survival: children with disseminated disease, additional intravenous STS vs cisplatin alone, p=0.009
[2] = reported incidences vary widely amongst studies; cited from earlier work
[3] = in vivo; cited from earlier work
[4] = test system: cisplatin-induced hearing loss (CIHL); conditions: cited from earlier work
[5] = guinea pigs; cited from earlier work
[6] = test system: cisplatin-induced hearing loss; conditions: transtympanic STS gel (0.5 M, 0.1 ml, 24 hours prior to cisplatin); 13 patients; 3 to 10 kHz; not significant; cited from earlier work
[7] = test system: cisplatin-induced hearing loss (CIHL); test: Phase 1 trial of transtympanic STS gel: audiometry (pure tone averages) for efficacy against cisplatin-induced hearing loss; assay type: in vivo, human; conditions: for Δ PTA 0.5-1-2 kHz (posttreatment − baseline) / Δ PTA 1-2-4 kHz (posttreatment − baseline) / Δ PTA 8-10-12.5 kHz (posttreatment − baseline): STS-treated ears; for difference in ΔPTA3 in favour of the untreated ear: last non-responder
Description: Arm A was a single-blind, placebo controlled, proof-of-concept study. A different application method was investigated in arm B, which was a non-blinded, non-placebo controlled, proof of concept arm. The ear to be treated with the transtympanic STS gel was assigned by randomisation in both arms. The study was performed at the Netherlands Cancer Institute in Amsterdam, the Netherlands. The protocol was approved by the institutional medical research ethics committee. The study is registered with the European Clinical Trials Database (EudraCT) (EudraCT: 2012-004653-80). […] Exclusion criteria were: known symptomatic brain or leptomeningeal metastases and relevant otological history (e.g. conductive hearing loss, vertigo). All patients gave written informed consent prior to start of study procedures. The ear to be treated with the transtympanic STS gel was assigned by randomisation in both arm A and arm B. Arm A concerned a single-blind study protocol in which the contralateral ear was treated with a placebo gel. Arm B was non-blinded and the contralateral ear was left untreated. The enrolment of patients was done by a treating physician. Randomisation was done via a randomisation program at the institutional trial centre. […] In arm B only the STS gel was prepared. Syringes with study medication were warmed up to body temperature (37° C.) for 30 minutes in an incubator ([…], Switzerland) to prevent hypo- or hypercaloric symptoms during or after injections. The syringe was connected to the (Braun, […]) needle via a 10 cm infusion line (BD Becton Dickenson connecta). […] To approach the eardrum in a perpendicular orientation. In arm A, the gels were administered through a […] grommet, which was placed for venting air to prevent barotrauma and/or pain while injecting. During this procedure we noticed there was backflow of the gel via the infusion needle backward into the external ear canal. Therefore, a different protocol for the transtympanic injection was chosen in arm B for the next 6 patients: the grommet was still placed in the anterior eardrum for ventilation of the middle ear, however, the STS gel was injected via the needle directly through the posterior part of the eardrum and indeed backflow into the external ear was not seen anymore. Topical anesthesia was applied using a few small (3×3 mm) gauzes with xylocaine 10% (lidocaine 100 mg/ml, AstraZeneca, United Kingdom) applied on the eardrum before placement of the grommet and the injections. During the injections, the patient was lying in a hospital bed with the upper body positioned 30 degrees upwards. After administration of the gel the patients head was turned 45 degrees contralateral. […] The specific positioning of the patient was in our view needed to for improved and/or prolonged exposure of the STS gel to the round window of the middle ear. […] If concomitant chemotherapy or radiotherapy was to be administered, this was done as per local protocol. […] Standard audiometry including air conduction (AC) and bone conduction (BC) thresholds was performed in a sound proof booth using the Decos Audiology Workstation. […] Six evaluable patients per study arm were considered sufficient to reach proof of concept based on the intra-patient comparison and the expected audiometric difference between the STS-treated and untreated/placebo treated ears. […] To study whether there was a significant difference in CIHL over time ([…]) between the STS ears and the untreated ears, the […] with paired samples was used.

In the case of `N.N.[Cl][Pt][Cl]` [Cisplatin, cis-diaminedichloroplatinum(II)], the “patients in whom CIHL was seen” value [1] is listed as 56%, the overall survival [1] is listed as 84% and the “occurrence of cisplatin-induced hearing loss in cisplatin-treated patients” value [2] is listed as 75-80%.

For `O=S([O-])([O-])=S.[Na+].[Na+]` [STS, sodium thiosulfate], the “patients in whom CIHL was seen” value [1] is given as 29%, the overall survival [1] is given as 45% and the oral bio-availability [3] is given as “poor”. For the same compound, the “adverse events likely attributed to intravenous STS administration” value ([4]; children) was “tumour progression and grade 3 infection, neutropenia, electrolyte disorders and anaemia”, the “relative risk of CIHL” value ([4]; intravenous STS, 95% confidence interval 0.33-0.81) was 52% and the “reduction of the incidence of CIHL versus cisplatin alone” value ([4]; intravenous STS, 109 children, p=0.002) was 48%. The “perilymph STS concentrations, transtympanic injections compared with intravenous infusion” value [5] was “higher”, the “averaged hearing loss less in STS-treated ears than in untreated ears” value [6] was 1.3 dB and the “Δ PTA 0.5-1-2 kHz (posttreatment − baseline)” value ([7]; 4 patients with ototoxicity who responded to STS-gel) was −0.4 dB HL. For the same compound, the “Δ PTA 1-2-4 kHz (posttreatment − baseline)” value ([7]; 4 responders) was −0.4 dB HL, the “Δ PTA 8-10-12.5 kHz (posttreatment − baseline)” value ([7]; 4 responders) was 6.8 dB SPL and the “occurrence of SNHL (ΔPTA3 ≥10 dB), STS-treated versus untreated ears” value ([7]; 12 STS-treated ears vs 12 untreated ears, McNemar p=0.125) was “no statistically significant difference”. For the same compound, the “Δ PTA 1-2-4 kHz (posttreatment − baseline)” value ([7]; all 12 patients) was 2.5 dB HL, the “Δ PTA 8-10-12.5 kHz (posttreatment − baseline)” value ([7]; all 12 patients) was 8.8 dB SPL and the “ΔPTA3 (8-10-12.5 kHz), overall” value ([7]; all 12 patients, STS-treated ears (untreated ears 12.7 dB)) was 8.8 dB. The “Δ PTA 0.5-1-2 kHz (posttreatment − baseline)” value ([7]; all 12 patients, directly after last cisplatin cycle minus baseline) was 2.1 dB HL, the ΔPTA3 ([7]; four non-responders, STS-treated ears (untreated ears 15.2 dB)) was 14.3 dB and the “mean ΔPTA3” value ([7]; four responders, STS-treated ears (untreated ears 25.2 dB)) was 6.8 dB. For the same compound, the “difference in ΔPTA3 between STS-treated ears and untreated ears” value ([7]; four responders, in favour of STS-treated ear, range 11.7-33.3 dB) was 18.4 dB, the “difference in ΔPTA3 in favour of the untreated ear” value ([7]; at follow-up audiometry) was 2.3 dB SPL and the “difference in ΔPTA3 in favour of the untreated ear” value ([7]; directly after treatment) was 10.0 dB SPL. For the same compound, the “difference in ΔPTA3 between ears” value ([7]; three of the four non-responders) was less than 10 dB SPL.
